From patent EP0051177A2, “Pharmaceutical preparations containing substituted ether compounds, their use, substituted ether compounds and process for their preparation” (CIBA-GEIGY AG, priority 1980, dated 1982)

What follows are compounds tested on LDL-Cholesterin (assay: Effect on serum lipids and lipoproteins (LDL cholesterol) in male rats after oral treatment). Settings: 50 mg/kg peroral, once daily for 3 days, twice on day 4, serum 16 h after last dose.
Type: in vivo, Ratten
Excerpt: Die in den Präparaten der Erfindung verwendeten Verbindungen zeigen wertvolle pharmakologische Eigenschaften, z.B. hypolipidämische Wirkungen mit günstiger Beeinflussung des Lipoproteinspektrums, ferner, insbesondere Verbindungen der Formel I, worin R3 für einen heterocyelischen Rest aromatischen Charakters, in erster Linie Pyridyl steht, analgetische Effekte. Diese pharmakologischen Eigenschaften können in Tierversuchen, vorzugsweise an Säugetieren, z.B. Ratten nachgewiesen werden. Hierbei können die Verbindungen enteral oder parenteral, vorzugsweise oral, subkutan oder intraperitoneal in einem Dosisbereich von 1 bis 100 mg/kg/Tag verabreicht werden. Beispielsweise wird die Senkung von "low und very low-density"-Lipoproteinen (LDL und VLDL), sowie die Senkung von Cholesterin und Triglyceriden im Serum wie folgt bestimmt: Männlichen Ratten verabreicht man an 3 Tagen einmal täglich 50 mg Wirkstoff peroral. Am 4. Tag werden die Tiere 2-mal behandelt. Am 5. Tag wird Serum gewonnen und die Lipoproteine werden mit einer Ultrazentrifuge aufgetrennt. Im Serum und in den isolierten Lipoproteinfraktionen werden das Cholesterin und die Triglyceride bestimmt. [K.R. Müller und R.G. Cortesi, Artery 4 (6): 564-577 (1978)].
Männliche Ratten von 180-200 g Körpergewicht erhalten an 3 Tagen einmal täglich peroral die Prüfsubstanz gelöst in Polyäthylenglykol 400. Am 4. Tag werden die Tiere zweimal, morgens und abends, behandelt. Nach der letzten Behandlung wird den Tieren das Futter entzogen. Sechzehn Stunden später werden die Ratten getötet. Aus dem Blut wird Serum gewonnen.
Gleiche Mengen Serum von je 2 Ratten aus derselben Gruppe werden vereinigt, und 0.05 EDTA (Aethylendiamintetraessigsäure) und 0,01 % Thimerosal werden zugesetzt. Die Serumlipoproteine werden durch Ultrazentrifugieren in einem Beckman 40.3 Rotor isoliert. Die VLDL (very low density lipoproteins) werden durch 24-stündiges
Zentrifugieren bei 78 000 g und der Dichte 1.006 gewonnen, die LDL (low density lipoproteins) durch 24-stündiges Zentrifugieren bei 78 000 g und der Dichte 1,040, und die HDL (high density lipoproteins) durch 24-stündiges Zentrifugieren bei 109 000 g und der Dichte 1.21.
In jeder Serumprobe und in jeder Lipoproteinfraktion werden Cholesterin und Triglyceride mit enzymatischen Methoden bestimmt. LDL-Cholesterin wurde als wichtigster Parameter für die Beurteilung der Lipidsenkung betrachtet.
Literatur: K.R. Müller und R.G. Cortesi, Artery 4(6):564-577 (1978).
Die Zahlen der folgenden Resultate geben die Aenderungen vom LDL-Cholesterin in % der Kontrolle an. Dosierung: 50 mg/kg peroral.

Question: For `CCCOC1Oc2ccccc2-c2nc(-c3cccc(OC)c3)ncc21` (stereo not shown) [2-(3-Methoxy-phenyl)-5-propyloxy-5H-[1]benzopyrano[4,3-d]pyrimidin], which “Aenderungen vom LDL-Cholesterin in % der Kontrolle” value is on record?
Answer: -43%

Question: Which “Aenderungen vom LDL-Cholesterin in % der Kontrolle” value does the source give for `CCOC1Oc2ccccc2-c2nc(-c3ccc(O)cc3)ncc21` (stereo not shown) [2-(4-Hydroxy-phenyl)-5-äthyloxy-5H-[1]benzopyrano[4,3-d]pyrimidin] here?
Answer: -69%

Question: Which “Aenderungen vom LDL-Cholesterin in % der Kontrolle” value does the source give for `CCCCOC1Oc2ccccc2-c2nc(-c3cccc(C)c3)ncc21` (stereo not shown) [2-(5-Methyl-phenyl)-5-butyloxy-5H-[1]benzopyrano[4,3-d]pyrimidin] here?
Answer: -29%

Question: With `CCCOC1Oc2ccccc2-c2nc(-c3ccc(OC)cc3)ncc21` (stereo not shown) [2-(4-Methoxy-phenyl)-5-propyloxy-5H-[1]benzopyrano[4,3-d]pyrimidin] as the compound, how does the “Aenderungen vom LDL-Cholesterin in % der Kontrolle” value read?
Answer: -38%

Question: With `CCOC1Oc2ccccc2-c2nc(-c3ccccc3)ncc21` (stereo not shown) [2-Phenyl-5-äthoxy-5H-[1]benzopyrano[4,3-d]pyrimidin] as the compound, how does the “Aenderungen vom LDL-Cholesterin in % der Kontrolle” value read?
Answer: -61%

The compounds below were run on Krümmungssyndrom an der Ratte (assay: Analgesic effect: acetic acid-induced writhing syndrome in the rat). Settings: Rattus norvegicus, po; peroral, 1 h before i.p. 3 % acetic acid; dose (by interpolation) reducing number of writhings by 50 %, counted for 20 min; read-out: ED50.
Type: in vivo
Protocol: Diese Wirkung wird durch Auswertung des Krümmungssyndroms an der Ratte bestimmt. Das Krümmungssyndrom wird z.B..in weiblichen Ratten von 120-140 g (5 Tiere pro Gruppe) durch eine intraperitoneale Injektion von 0,2 ml einer 3 %igen Essigsäurelösung eine Stunde nach der oralen Verabreichung der geprüften Substanz, hervorgerufen. Die Krümmungs-Bewegungen der Versuchstiere werden während 20 Minuten gezählt.
Die analgetische (antinociceptive) Wirksamkeit einer Verbindung wird durch die Bestimmung der Dosis (durch Interpolieren), welche bei Kontrolltieren (die lediglich den Trägerstoff der Wirksubstanz erhalten haben) die Anzahl der Krümmungen um 50% vermindert, beurteilt. ( ED50).
Literatur: Ziel et al., Pain Res. and Therapy, Vol. 1, ed. Bonica and Albe, Raven Press N.Y., 1976, p. 517.

Question: How did the ED50 turn out when `CCCCOC1Oc2ccccc2-c2nc(-c3cccnc3)ncc21` (stereo not shown) [2-(3-Pyridyl)-5-butyloxy-5H-[1]benzopyrano[4,3-d]pyrimidin] was run?
Answer: 5 mg/kg

Question: Which ED50 does the source give for `CCOC1Oc2ccccc2-c2nc(-c3ccccn3)ncc21` (stereo not shown) [1-(2-Pyridyl)-5-äthoxy-5H-[1]benzopyrano[4,3-d]pyrimidin] here?
Answer: 15 mg/kg

Question: Which ED50 does the source give for `CCCOC1Oc2ccccc2-c2nc(-c3ccncc3)ncc21` (stereo not shown) [2-(4-Pyridyl)-5-propyloxy-5H-[1]benzopyrano[4,3-d]pyrimidin] here?
Answer: 15 mg/kg

Question: For `CCOC1Oc2ccccc2-c2nc(-c3cccnc3)ncc21` (stereo not shown) [2-(3-Pyridyl)-5-äthoxy-5H-[1]benzopyrano[4,3-d]pyrimidin], which ED50 is on record?
Answer: 1.5 mg/kg

Same assay, conditions: peroral, 1 h before i.p. 3 % acetic acid; dose (by interpolation) reducing number of writhings by 50 %, counted for 20 min

Question: Which ED50 does the source give for “6-Methyl-2-(3-pyridyl)-5-butyloxy-5H-[1]benzopyrano[4,3-d]pyrimidin” here?
Answer: 60 mg/kg
